Results taken from publication PMC2873402, “Discovery of High-Affinity Protein Binding Ligands – Backwards” (PLoS ONE, 2010).

Tests used:
[1] = target: AKT1 (Homo sapiens, UniProt P31749); assay: AKT1 binding site mapping by crosslinking and MS; parameters: N-terminal vector leader of pEXP5-NT (6xHis + TEV site by own knowledge of the vector); made in house; host or cells: Expressway Mini Cell-Free Expression System (in vitro translation); settings: for region of AKT1 crosslinked: 10 µM peptide, 2.5 µM AKT1, 100 µM BS3-d0/d4 (1:1), trypsin, MALDI-TOF-MS; for likely binding site on AKT1: from relative intensity of fragments and proximity of lysines; for AKT1 lysine(s) likely cross-linked: surface-exposed lysines mapped on PDB 3CQU
AKT1, sequence (P31749 whole entry, the tested form may be a part): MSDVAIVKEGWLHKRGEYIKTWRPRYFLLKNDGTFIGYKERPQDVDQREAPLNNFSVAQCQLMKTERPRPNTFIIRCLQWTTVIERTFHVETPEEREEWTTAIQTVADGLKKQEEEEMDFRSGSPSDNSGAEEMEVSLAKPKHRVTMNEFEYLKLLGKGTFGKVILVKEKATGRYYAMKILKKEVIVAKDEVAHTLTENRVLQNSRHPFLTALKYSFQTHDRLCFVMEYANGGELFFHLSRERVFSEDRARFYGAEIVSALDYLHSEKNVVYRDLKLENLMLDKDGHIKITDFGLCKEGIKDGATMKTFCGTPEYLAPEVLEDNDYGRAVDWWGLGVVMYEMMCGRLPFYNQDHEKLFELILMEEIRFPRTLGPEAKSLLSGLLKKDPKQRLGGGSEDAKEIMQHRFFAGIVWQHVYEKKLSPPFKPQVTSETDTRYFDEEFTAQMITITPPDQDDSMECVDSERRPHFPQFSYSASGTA
Text: As an orthogonal assessment of whether the peptides bind different sites on AKT1, each peptide was crosslinked to AKT1 in vitro using a commercially available set of deuterated / non-deuterated crosslinkers (BS^3-(d0/d4)). The crosslinkers chemically conjugate primary amines that are in close proximity to one another (11.4 Å) and the crosslinked complex is then subjected to enzymatic digestion and analysis by mass spectrometry. Crosslinked peptides are identified by the presence of a pair of ions that are separated by 4 mass units indicating crosslinking with both non-deuterated and deuterated crosslinkers. Peptide 1 has two possible crosslinking sites (N-terminus and K at position 3) and peptide 2 has one possible crosslinking site at the N-terminus. A 10 µM solution of each peptide was added to 2.5 µM AKT1 and incubated for 1 hour prior to the addition of a 100 µM solution of a 1∶1 mixture of crosslinkers. After crosslinking, the mixture was digested with trypsin and analyzed by MALDI-TOF-MS. […] The location of each AKT1 fragment was mapped onto a crystal structure of residues 139–480 of AKT1 (PDB #3CQU) (Figure 4C).
10 µM of peptide 1 and peptide 2 were individually incubated with 2.5 µM of recombinant AKT1 (produced in house) in PBS buffer (200 uL total volume) for one hour, after which an equimolar ratio of BS^3-d0∶BS^3-d4 (Thermo Scientific, Rockford, IL) crosslinker was added for a total crosslinker concentration of 100 µM. The same concentration of crosslinker was added to a 200 µL control sample containing only 2.5 µM AKT1. Crosslinking was performed for one hour. After crosslinking, free peptide and crosslinker were removed from the mixture with a 30 kDa spin filter and at the same time the buffer was exchanged with 100 mM ammonium bicarbonate pH 8.0. Proteomics grade trypsin (Sigma-Aldrich, St. Louis, MO) was added to all samples at a ratio of 1∶30 (mol∶mol) Trypsin∶AKT1 and incubated overnight at 37°C. Digested samples were lyophilized and reconstituted in 5 µL acetonitrile∶H2O (1∶1) containing 0.1% trifluoroacetic acid and spotted on a MALDI target plate along with ∝-cyano-4-hydroxycinnamic acid MALDI matrix. Mass spectra were obtained on an Ultraflex-III MALDI TOF-TOF (Bruker, Billerica, MA) and analyzed in FlexAnalysis (Bruker, Billerica, MA).

[2] = target: synbody variant in which the C-terminal Cys was replaced with a Lys-Biotin; assay: pull-down; IP: biotin synbody on streptavidin magnetic beads; ^35S-labeled AKT1 in the IVT mixture diluted from 41.5 nM to 80 pM (AKT1 about 3% of total protein); liquid scintillation counting; 1:1 fit in GraphPad Prism

^35S-labeled AKT1 produced by in vitro translation, sequence (P31749 whole entry): as the sequence (P31749 whole entry, the tested form may be a part) above

| Kd [2] | Substance | region of AKT1 crosslinked [1] | likely binding site on AKT1 [1] | AKT1 lysine(s) likely cross-linked [1] |
| --- | --- | --- | --- | --- |
| – | AHKVVPQRQIRHAYNRYGSG [peptide 1, 20-aa peptide arm of the synbody] | crosslinked to a region of AKT1 that spans the Protein Kinase (PK) and AGC Kinase domain | in a region of low homology between AKT1, AKT2, and AKT3 | ^419Lys |
| – | FRGWAHIFFGPHVIYRGGSG [peptide 2, 20-aa peptide arm of the synbody] | crosslinked to multiple regions on AKT1 (Figure 4A, Figure 4B, Table S1), with the majority of crosslinking occurring in the PK domain | primary binding site for peptide 2 is likely on the PK domain and that a secondary binding site lies on the AGC domain | ^182Lys, ^276Lys, and ^481Lys |
| 4.9 nM | ^35S-labeled AKT1 produced by in vitro translation (from UniProt P31749 1-480) (natural protein) | – | – | – |
